Legend:
Conditions in all cases: for Inhibition rate of growth: 48-72 hrs
[1] = system: breast cancer cell MDA-MB-435; experiment: Antitumor activity test (MTT reduction / SRB protein staining), growth inhibition of MDA-MB-435; format: cell-based, human
Text: (§1) Screening method: methyl-thiazol-tettazolium (MTT) reduction method and sulforhodamine B (SRB) protein staining method.
(§2) Cell strains: human liver cancer cell HepG2, human lung cancer cell A-549, and breast cancer cell MDA-MB-435.

[2] = system: human liver cancer cell HepG2; experiment: Antitumor activity test (MTT reduction / SRB protein staining), growth inhibition of HepG2; format: cell-based
Text: as §1, §2

[3] = system: human lung cancer cell A-549; experiment: Antitumor activity test (MTT reduction / SRB protein staining), growth inhibition of A-549; format: cell-based
Text: as §1, §2

SMILES: CC(=Cc1csc(C)n1)C1CC2OC2CCCC(C)C(O)C(C)C(=O)C(C)(C)C(OC2OC(CO)C(O)C2O)CC(=O)O1 (centres unmarked) [epothilone glycoside A-1]
- IC50 ([1]; MDA-MB-435, 48-72 hrs): 2070 nM
- Inhibition grade (no / weak / strong effect) ([1]; MDA-MB-435, at the concentration of 10^−6 M): weak inhibition
- Inhibition rate of growth ([1]; MDA-MB-435, concentration 1 μM): 18.9
- Inhibition rate of growth ([1]; MDA-MB-435, concentration 2 μM): 55.0
- Inhibition rate of growth ([1]; MDA-MB-435, concentration 4 μM): 76.1
- Inhibition rate of growth ([1]; MDA-MB-435, concentration 8 μM): 84.6
- Inhibition rate of growth ([1]; MDA-MB-435, concentration 10 μM): 98.2
- IC50 ([2]; HepG2, 48-72 hrs): 70 nM
- Inhibition grade (no / weak / strong effect) ([2]; HepG2, at the concentration of 10^−6 M): strong inhibition
- Inhibition rate of growth ([2]; HepG2, concentration 10^−4 M): 100
- Inhibition rate of growth ([2]; HepG2, concentration 10^−5 M): 99.9
- Inhibition rate of growth ([2]; HepG2, concentration 10^−6 M): 93.3
- Inhibition rate of growth ([2]; HepG2, concentration 10^−7 M): 41.5
- Inhibition rate of growth ([2]; HepG2, concentration 10^−8 M): 15.7
- Inhibition grade (no / weak / strong effect) ([3]; A-549, at the concentration of 10^−6 M): weak inhibition
- Inhibition rate of growth ([3]; A-549, concentration 10^−4 M): 90.6
- Inhibition rate of growth ([3]; A-549, concentration 10^−5 M): 83.7
- Inhibition rate of growth ([3]; A-549, concentration 10^−6 M): 72.0
- Inhibition rate of growth ([3]; A-549, concentration 10^−7 M): 0
- Inhibition rate of growth ([3]; A-549, concentration 10^−8 M): 0
